From patent US9771405B2, “Nucleic acids encoding for chimeric natriuretic polypeptides with unique pharmacologic profiles” (Mayo Foundation for Medical Education and Research, priority 2008, dated 2017)

Test: BAA-NP, BUA-NP or human BNP infusion in anesthetized dogs: renal, hemodynamic and neurohumoral measurements
Format: in vivo, dog
Settings: for renal perfusion pressure: mean arterial pressure minus right atrial pressure; for renal perfusion pressure / mean arterial pressure: BNP at equimolar dose; for net renal generation of cGMP / plasma cGMP / urinary cGMP excretion / urinary sodium excretion / urine flow: 30 and 60 minutes of infusion vs. pre-infusion; for plasma ANP immunoreactivity / plasma CNP immunoreactivity: RIA; for glomerular filtration rate: inulin clearance
Procedure: BAA-NP and BUA-NP were reconstituted in normal saline and were infused at 1 mL/minute. Dogs were maintained on a Na^+-controlled diet (Hill's i/d® canine diet, Hill's Pet Nutrition, Inc., Topeka, Kans.). In the evening before the experiment, the dog was fasted with ad lib access to water and was given lithium carbonate 300 mg orally for assessment of renal tubular function on the next day.
On the day of the experiment, the dog was anesthetized with pentobarbital sodium (induction 6-20 mg/kg i.v., maintenance 5-15 mg/kg/h i.v.) and fentanyl (0.04-0.12 mg/kg i.v., maintenance 0.04-0.18 mg/kg/h), and was intubated and mechanically ventilated (Harvard Apparatus, Holliston, Mass.) with 3 L/minute of 02 (tidal volume 15 mL/kg, 12 cycles/minute). The femoral artery was cannulated for blood pressure monitoring and for blood sampling. The femoral vein was cannulated for infusion of inulin and normal saline. The saphenous vein was cannulated for polypeptide infusion. A balloon-tipped thermodilution catheter (Edwards Lifesciences, Irvine, Calif.) was used for monitoring hemodynamics and body temperature (maintained at 38±1° C.). Cardiac output (CO) was measured in triplicate and averaged (model 9510-A, American Edwards Laboratories, Irvine, Calif.). Hemodynamic data were digitally recorded and analyzed (Sonometrics Corporation, London, ON). The left kidney was exposed via a flank incision. The ureter was cannulated for timed urine collection. An electromagnetic flow probe was placed on the renal artery for measuring renal blood flow (Burnett et al., Am. J. Physiol., 247(5 Pt 2):F863-6 (1984)). A weight-adjusted bolus of inulin was given, followed by an inulin infusion (1 mL/minute) to achieve plasma levels of 40-60 mg/dL (Burnett et al., Am. J. Physiol., 247(5 Pt 2):F863-6 (1984); Chen et al., Am. J. Physiol. Regul. Integr. Comp. Physiol., 288(5):R1093-7 (2005); and Margulies et al., J. Clin. Invest., 88(5):1636-42 (1991)), for measuring GFR by inulin clearance. Normal saline was infused (1 mL/minute) and was temporarily discontinued during peptide infusion (1 mL/minute).
Following equilibration of approximately 60 minutes in duration, the BAA-NP or BUA-NP polypeptide was infused for 75 minutes. Hemodynamic and renal data, as well as blood and urine samples, were collected for each 30-minute clearance: pre-infusion, at 30 and 60 minutes of infusion (time denotes mid-clearance). Inulin clearance was used for measuring glomerular filtration rate (GFR). The lithium clearance technique was used for quantifying proximal and distal fractional reabsorption of Na^+ (PFRNa and DFRNa, respectively).
Plasma and urinary ANP, CNP, and cGMP were measured by radioimmunoassays (RIA) (Chen et al., Am. J. Physiol. Regul. Integr. Comp. Physiol., 288(5):R1093-7 (2005); Burnett et al., Science, 231(4742):1145-7 (1986); Steiner et al., J. Biol. Chem., 247(4):1106-13 (1972); Supaporn et al., Kidney Int., 50(5):1718-25 (1996); and Cataliotti et al., Am. J. Physiol., 283(3):F464-72 (2002)). Plasma renin activity (Haber et al., J. Clin. Endocrinol. Metab., 29(10):1349-55 (1969)), angiotensin II (Luchner et al., Hypertension, 28(3):472-7 (1996)), and aldosterone (Sancho and Haber, J. Clin. Endocrinol. Metab., 47(2):391-6 (1978)) were quantified. Plasma and urinary lithium levels were measured by flame emission spectrophotometry (model 357, Instrumentation Laboratory, Wilmington, Mass.) (Margulies et al., J. Clin. Invest., 88(5):1636-42 (1991)). The lithium clearance technique (CLLi) was used to assess PFRNa and DFRNa as follows (Chen et al., Am. J. Physiol. Regul. Integr. Comp. Physiol., 288(5):R1093-7 (2005)): PFRNa=[1−(CLLi/GFR)]×100 and DFRNa=[(CLLi−CLNa)/CLLi]×100, where CLLi=[urine Li^+]×urine flow/[plasma Li^+] and CLNa=[urine Na^+]×urine flow/[plasma Na^+]. Net renal production of cGMP was determined (Margulies et al., J. Clin. Invest., 88(5):1636-42 (1991)): (urinary cGMP×urine flow rate)−(plasma cGMP×GFR). […]

[1] = anesthetized dogs, i.v. infusion, vs. pre-infusion
[2] = at 30 minutes of infusion, BNP compared to BAA-NP or BUA-NP, equimolar dose
[3] = at 60 minutes of infusion, BNP compared to BAA-NP or BUA-NP, equimolar dose
[4] = anesthetized dogs, i.v. infusion
[5] = anesthetized dogs, i.v. infusion, lithium clearance technique, vs. pre-infusion

| Substance | renal perfusion pressure [1] | mean arterial pressure [1] | change in renal perfusion pressure from baseline [2] | change in renal perfusion pressure from baseline [3] | net renal generation of cGMP [4] | plasma cGMP [4] | urinary cGMP excretion [4] | urinary sodium excretion [4] | urine flow [4] | plasma ANP immunoreactivity [1] | plasma CNP immunoreactivity [1] | glomerular filtration rate [1] | distal fractional reabsorption of sodium [5] | proximal fractional reabsorption of sodium [5] | cardiac output [1] | hematocrit (hemoconcentration) [1] | pulmonary arterial pressure [1] | pulmonary capillary pressure [1] | renal blood flow [1] | renal vascular resistance [1] | also measured |
| --- | --- | --- | --- | --- | --- | --- | --- | --- | --- | --- | --- | --- | --- | --- | --- | --- | --- | --- | --- | --- | --- |
| human BNP: human BNP natriuretic polypeptide, comparator infused at equimolar dose [reference compound] | significantly reduced | significantly reduced | significantly greater decreases | significantly greater decreases | – | – | – | – | – | – | – | – | – | – | – | – | – | – | – | – | change in mean arterial pressure from baseline [2]: significantly greater reduction; change in mean arterial pressure from baseline (at 60 minutes of infusion, BNP versus BAA-NP): greater decrease |
| SLRRSSCFGRKMDRISSSSG-LGCNSFRY (SLRRSSCFGRKMDRISSSSGLGCNSFRY) [BAA-NP, 28-residue chimeric natriuretic polypeptide: human ANP residues 1-6, human mature BNP residues 10-26, human ANP residues 24-28] | – | mild decrease | preserved | preserved | significantly increased | significantly increased | significantly increased | significantly increased | significantly increased | significantly increased | significantly increased | preserved | significantly reduced | significantly reduced | preserved | significant increase | significantly reduced | significantly reduced | significantly enhanced | significantly reduced | plasma aldosterone [1]: significantly suppressed; plasma angiotensin II [1]: significantly suppressed; plasma renin activity [1]: significantly suppressed; right atrial pressure [1]: significantly reduced; urinary excretion of ANP [1]: significantly increased; urinary excretion of CNP [1]: significantly increased; urinary potassium excretion [1]: significantly increased |
| TAPRSLRRSSCFGRKMDRIS-SSSGLGCNSFRY (TAPRSLRRSSCFGRKMDRISSSSGLGCNSFRY) [BUA-NP, 32-residue chimeric natriuretic polypeptide: human urodilatin residues 1-10, human mature BNP residues 10-26, ANP C-terminus] | preserved | mild decrease | preserved | preserved | significantly increased | significantly increased | significantly increased | significantly increased | significantly increased | significantly increased | significantly increased | preserved | significantly reduced | significantly reduced | preserved | significant increase | significantly reduced | significantly reduced | significantly enhanced | significantly reduced | activation of cGMP (BUA-NP compared with BAA-NP): greater activation; distal fractional reabsorption of sodium (BUA-NP compared with BAA-NP): greater reductions; natriuresis and diuresis (BUA-NP compared with BAA-NP): enhanced; proximal fractional reabsorption of sodium (BUA-NP compared with BAA-NP): greater reductions; right atrial pressure [1]: significantly reduced; urinary potassium excretion [1]: significantly increased |
